Reference: paper PMC12120625, “Cytotoxicity and Nanoassembly Characteristics of Aromatic Amides of Oleanolic Acid and Ursolic Acid” (ACS Omega, 2025)

Experiments:
[1] = Cytotoxicity assay, resazurin, 72 h, normal fibroblasts BJ; format: cell-based; conditions: human, BJ normal foreskin fibroblasts, normal foreskin fibroblast
Experimental: (§1) The cytotoxicity screening tests were made with T-lymphoblastic leukemia (CCRF-CEM), breast adenocarcinoma (MCF7), cervical carcinoma (HeLa), and malignant melanoma (G-361) cancer cell lines (the European Collection of Authenticated Cell Cultures, Salisbury, U.K.). Human foreskin fibroblasts (BJ) were used as reference cells, and they were obtained from the American Type Culture Collection (ATCC, Manassas, Virginia). The cells were cultured in DMEM (Dulbecco’s modified Eagle’s medium) or RPMI 1640 (CCRF-CEM). Media used were supplemented with 10% fetal serum, L-glutamine (2 mM), and 1% penicillin–streptomycin mixture (all from Sigma-Aldrich). The cell lines were maintained under standard cell culture conditions at 37 °C and 5% CO2 in a humid environment. Cells were subcultured two or three times a week using the standard trypsinization procedure.
(§2) The cytotoxicity assays were performed according to the standard experimental procedure published earlier. The cell viability was measured after 72 h using resazurin (Sigma-Aldrich). Western blotting and caspase activity assay were performed as described earlier. ,

MCF7 = assay: Cytotoxicity assay, resazurin, 72 h, MCF7; format: cell-based; conditions: Homo sapiens, breast adenocarcinoma
Experimental: as §1, §2

G-361 = assay: Cytotoxicity assay, resazurin, 72 h, G-361; format: cell-based; conditions: Homo sapiens, malignant melanoma
Experimental: as §1, §2

CCRF-CEM = assay: Cytotoxicity assay, resazurin, 72 h, CCRF-CEM; format: cell-based; conditions: Homo sapiens, T-lymphoblastic leukemia
Experimental: as §1, §2

HeLa = assay: Cytotoxicity assay, resazurin, 72 h, HeLa; format: cell-based; conditions: Homo sapiens, cervical cancer
Experimental: as §1, §2

[2] = Nanoassembly by UV spectroscopy and TEM in methanol and water; format: physicochemical; conditions: UV spectra and TEM
Experimental: UV spectra were measured on a Specord 210 spectrometer (Jena Analytical, Germany) in the wavelength range of 200–400 nm. The stock solutions of the studied compounds (9b, 13b, 16b, or 17b; 0.003 mmol) were prepared in methanol (2 mL) at a concentration of 1 mg·mL^–1. A series of water/methanol mixtures were then prepared starting from a water/methanol ratio of 0/100 up to 100/0 in 20% steps. The stock solutions of the studied compounds (0.15 mL) were added separately to each vial containing water/methanol mixtures (3 mL), and the UV spectra were recorded in the wavelength range of 200–400 nm. Aliquots of the stock solutions of the studied compounds (160 μL) were used to prepare samples in the given ratios of water/methanol (0:100 to 100:0 in the 20% steps) mixtures. The UV spectra were recorded in the time 0, 1, 2, 3, and 4 h, followed by a subsequent recording after each 24 h during 7 days (Supporting Information, Figure S33). Note: All target compounds were subjected to this type of investigation; however, self-assembly characteristics were detected by measuring the UV spectra only with 9b, 13b, 16b, and 17b.
Transmission electron microscopy (TEM) was performed with a Tecai G2 Spirit Twin 12 microscope (FEI, Brno, Czech Republic). The samples for TEM were prepared by the fast-drying method, both in methanol and in water. , The studied compounds (2 μL of each one) were dissolved in methanol, and if studies should have been made in water, the compounds were first dissolved in methanol, and then water was added to make the final methanol/water (1:10) solutions. The solutions of compounds in either solvent were made to get the final concentrations of c = 10 mg·mL^–1. Then the solutions were dropped onto a standard carbon-coated copper TEM grid (300 mesh). After 2 min, the rest of the solution was removed by touching the bottom of the grid with a thin strip of filter paper. This fast removal of the solvent, also referred to as “fast-drying” above, is necessary to minimize drying artifacts, as documented in previous studies. , The fast-dried specimens were left to dry completely at an ambient temperature. […] The morphology of selected samples was verified by additional TEM experiments, which employed the samples that were negatively stained with uranyl acetate (UO2Ac2). The negative staining was performed as follows: A small volume (2 μL) of UO2Ac2 (2 wt % of aqueous solution) was dropped on the selected dried specimens from the previous step (i.e., on the dried specimens on the carbon-coated TEM grids). After 1 min, the excess of UO2Ac2 solution was removed (by touching the bottom of the grid with filter paper, like in the previous step). […]

[3] = Solubility in methanol and water; format: physicochemical

SMILES | IC50 at 72 h [1] [µM] | IC50 (MCF7) [µM] | IC50 (G-361) [µM] | IC50 (CCRF-CEM) [µM] | IC50 (HeLa) [µM] | nanoassembly [2] | solubility [3]
C[C@H]1[C@H](C)CC[C@]2(C(=O)NCC(=O)Nc3cc4cccnc4c4ncccc34)CC[C@]3(C)C(=CC[C@@H]4[C@@]5(C)CC[C@H](O)C(C)(C)[C@@H]5CC[C@]43C)[C@H]12 [Compound 5b] | 1.6 ± 0.1 | 0.5 | 0.5 ± 0.1 | 0.6 ± 0.1 | 0.6 ± 0.1 | – | –
CC1(C)CC[C@]2(C(=O)NCC(=O)Nc3ccc(N)cc3)CC[C@]3(C)C(=CC[C@@H]4[C@@]5(C)CC[C@H](O)C(C)(C)[C@@H]5CC[C@]43C)[C@@H]2C1 [Compound 9a] | 37.9 ± 6.1 | 17 ± 2.1 | 18.6 ± 2.3 | 31.7 ± 2.3 | 28.7 ± 1.8 | showed no nanoassembly | –
CC1(C)CC[C@]2(C(=O)NCC(=O)Nc3cccc(N)c3)CC[C@]3(C)C(=CC[C@@H]4[C@@]5(C)CC[C@H](O)C(C)(C)[C@@H]5CC[C@]43C)[C@@H]2C1 [Compound 13a] | 45.7 ± 2.2 | 14.2 ± 1.3 | 19.5 ± 2.1 | 29.4 ± 4.4 | 19.9 ± 1 | showed no nanoassembly | –
CC(=O)O[C@H]1CC[C@]2(C)[C@H]3CC=C4[C@@H]5[C@@H](C)[C@H](C)CC[C@]5(C(=O)NCC(=O)Nc5cc6cccnc6c6ncccc56)CC[C@@]4(C)[C@]3(C)CC[C@H]2C1(C)C [Compound 4b] | 1.5 ± 0.5 | 0.9 ± 0.3 | 0.5 ± 0.1 | 0.6 ± 0.2 | 0.4 ± 0.1 | – | –
CC1(C)CC[C@]2(C(=O)O)CC[C@]3(C)C(=CC[C@@H]4[C@@]5(C)CC[C@H](O)C(C)(C)[C@@H]5CC[C@]43C)[C@@H]2C1 [Compound 1a, (3β)-3-hydroxyolean-12-en-28-oic-acid, reference compound] | > 50 | > 50 | > 50 | > 50 | > 50 | – | –
C[C@H]1[C@H](C)CC[C@]2(C(=O)NCC(=O)Nc3ccc(N)cc3)CC[C@]3(C)C(=CC[C@@H]4[C@@]5(C)CC[C@H](O)C(C)(C)[C@@H]5CC[C@]43C)[C@H]12 [Compound 9b] | 35.2 ± 1.3 | 16.4 ± 3.7 | 23.3 ± 1 | 25.8 ± 0.4 | 30 ± 2.8 | displayed nanoassembly in methanol and water | soluble both in methanol and in water
CC(=O)O[C@H]1CC[C@]2(C)[C@H]3CC=C4[C@@H]5[C@@H](C)[C@H](C)CC[C@]5(C(=O)NCC(=O)Nc5ccc(N)cc5)CC[C@@]4(C)[C@]3(C)CC[C@H]2C1(C)C [Compound 7b] | 36.1 ± 4.5 | 14.9 ± 2.2 | 11.2 ± 0.4 | 18.1 ± 0.4 | 12.5 ± 2.3 | – | –
CC1(C)CC[C@]2(C(=O)NCC(=O)Nc3cc4cccnc4c4ncccc34)CC[C@]3(C)C(=CC[C@@H]4[C@@]5(C)CC[C@H](O)C(C)(C)[C@@H]5CC[C@]43C)[C@@H]2C1 [Compound 5a] | 1.5 ± 0.1 | 0.4 ± 0.1 | 0.5 ± 0.1 | 0.3 ± 0.1 | 0.6 ± 0.2 | – | –
CC(=O)O[C@H]1CC[C@]2(C)[C@H]3CC=C4[C@@H]5CC(C)(C)CC[C@]5(C(=O)NCC(=O)Nc5cccc(N)c5)CC[C@@]4(C)[C@]3(C)CC[C@H]2C1(C)C [Compound 11a] | > 50 | 39.5 ± 1.5 | 38.6 ± 1.3 | > 50 | 41.9 ± 4.7 | – | –
CC(=O)O[C@H]1CC[C@]2(C)[C@H]3CC=C4[C@@H]5CC(C)(C)CC[C@]5(C(=O)NCC(=O)O)CC[C@@]4(C)[C@]3(C)CC[C@H]2C1(C)C [Compound 3a] | > 50 | 46.9 ± 4.4 | 43.1 ± 1.1 | 41 ± 5.9 | 35.8 ± 3.4 | – | –
CC(=O)O[C@H]1CC[C@]2(C)[C@H]3CC=C4[C@@H]5CC(C)(C)CC[C@]5(C(=O)NCC(=O)Nc5cc6cccnc6c6ncccc56)CC[C@@]4(C)[C@]3(C)CC[C@H]2C1(C)C [Compound 4a] | 0.8 ± 0.1 | 0.7 ± 0.1 | 0.4 | 0.6 ± 0.1 | 0.3 | – | –
C[C@H]1[C@H](C)CC[C@]2(C(=O)O)CC[C@]3(C)C(=CC[C@@H]4[C@@]5(C)CC[C@H](O)C(C)(C)[C@@H]5CC[C@]43C)[C@H]12 [Compound 1b, (3β)-3-hydroxy-urs-12-en-28-oic-acid, reference compound] | 15.6 ± 0.6 | 16.2 ± 0.5 | 9.7 ± 0.3 | 13.2 ± 2.7 | 12.6 ± 2.7 | – | –
CC(=O)O[C@H]1CC[C@]2(C)[C@H]3CC=C4[C@@H]5[C@@H](C)[C@H](C)CC[C@]5(C(=O)NCC(=O)O)CC[C@@]4(C)[C@]3(C)CC[C@H]2C1(C)C [Compound 3b] | > 50 | 49.7 ± 0.5 | 38.7 ± 4.9 | 43.3 ± 5.4 | – | – | –
CC(=O)O[C@H]1CC[C@]2(C)[C@H]3CC=C4[C@@H]5CC(C)(C)CC[C@]5(C(=O)NCC(=O)Nc5ccc(N)cc5)CC[C@@]4(C)[C@]3(C)CC[C@H]2C1(C)C [Compound 7a] | 18.5 ± 2.6 | 12 ± 2.5 | 8.5 ± 0.1 | 17.1 ± 1.9 | 10.9 ± 1.9 | – | –
CC(=O)O[C@H]1CC[C@]2(C)[C@H]3CC=C4[C@@H]5[C@@H](C)[C@H](C)CC[C@]5(C(=O)NCC(=O)Nc5cccc(N)c5)CC[C@@]4(C)[C@]3(C)CC[C@H]2C1(C)C [Compound 11b] | 44.8 ± 0.6 | 15.8 ± 3.2 | 15 ± 0.8 | 32.6 ± 8.7 | 14.6 ± 2.7 | – | –
C[C@H]1[C@H](C)CC[C@]2(C(=O)NCC(=O)Nc3cccc(N)c3)CC[C@]3(C)C(=CC[C@@H]4[C@@]5(C)CC[C@H](O)C(C)(C)[C@@H]5CC[C@]43C)[C@H]12 [Compound 13b] | 38.5 ± 0.8 | 12.8 ± 2.5 | 14.4 ± 2.9 | 22.3 ± 2.3 | 26.7 ± 2.7 | displayed nanoassembly in methanol and water | soluble both in methanol and in water
